# In patent US8282688B2, “Laccase mediators and methods of use” (Danisco US Inc., priority 2006, dated 2012):
# Several values for one entry are separate records, joined by “and”; a condition that tells them apart may be missing. Identical values can stand only once.
# Legend:
# Format in all cases: biochemical
# [1] = test system: Myceliophtora laccase (Denilite II); test: Soluble indigo bleaching at two pH values, Myceliophtora laccase (Example 3)
# Method: (§1) A saturated solution of indigo in N-methylpyrrolidone (NMP) was prepared by stirring indigo (30 mg) in NMP (10 ml) at room temperature for 5 hours. The NMP solution was diluted 10-fold into an aqueous buffer solution resulting in a blue solution. For example, dilution into 50 mM sodium acetate buffer at pH 5, or 50 mM sodium phosphate buffer at pH 7. Solutions were shaken well immediately before use.
# (§2) The assay for the bleaching of the solubilized indigo substrate was performed in a 96-well microtitre plate whereby each well received the soluble indigo solution in 50 mM sodium acetate buffer at pH 5 (180 uL), laccase (10 ppm enzyme) and mediator solution (from a 20 mM stock solution in methanol). The total volume of each well was adjusted to 200 uL with deionzed water. A control containing laccase only was run in duplicate. The plate was sealed and incubated at 50° C. for 2 hours at 800 rpm on a heated agitator (Thermomixer, Eppendorf). Following this period, the plates were unsealed and a solution of ascorbic acid (20 uL of a 10% aqueous solution) added to each well in order to reduce the oxidized forms of the mediators. The extent of indigo bleaching was then assessed by determining the absorbance for each well at 600 nm using a microtitre plate reader. The lower the absorbance reading, the greater the extent of indigo bleaching.
# (§3) Laccases derived from Myceliophtora (Denilite® II, Novozymes, Bagsvaerd, Denmark), Thielavia (Ecostone LCC10, AB enzymes, Darmstadt, Germany) and Cerrena sp. were assessed for their ability to bleach solubilized indigo in conjunction with low molecular weight mediators at two pH values.
# (§4) Bleaching of solubilized indigo in 96-well microtitre plates was performed as described in Example 1, using 3 different laccases at pH values of 5 and 7.
# Cerrena sp. laccase = test: Soluble indigo bleaching at two pH values, Cerrena sp. laccase (Example 3)
# Method: as §1, §2, §3, §4
# [2] = test system: recombinant laccase D from C. unicolor; test: Bleaching of denim swatches with recombinant C. unicolor laccase D (Example 5); design: key to ΔE (total color difference) Denim swatch Backside / ΔE (total color difference) Denim swatch Frontside: CIE L*a*b* differences, initial minus final; ΔE=(ΔL²+Δa²+Δb²)^1/2
# Method: (§5) Denim legs (made out of sulfur bottom/indigo dyed denim fabric from Cone Mill, style number 1662P) were pretreated with IndiAge® 2XL at a dose of 1 gram per liter in a 50 lb lab scale tumbling washer. The liquor ratio was 6 to 1 (5 kg substrate in 30 liters of water) and the treatment was performed at 55° C. at pH 4.5 for 1 hour. A warm rinse followed the cellulase treatment, after which the fabric was dried in a tumble dryer. A punch press was used to cut ⅝ inch denim disks from IndiAge® 2XL pretreated denim legs. Each denim disk is pre read with a Chroma Meter CR-200 by Minolta in order to determine the CIE L*a*b* values of both the front and backside of the fabric disk.
# (§6) One denim disk is placed in each well of two duplicate 12 well micro-titer plates. Each well received C. unicolor laccase (20 uL of 1/20 dilution, approx. 20 ppm), mediator (200, 100, 50 or 20 uL of a 20 mM stock solution in methanol) and 50 mM potassium phosphate buffer, pH 6 for a total volume of 2 mL/well. The mediators were methyl syringate (MS), 4-cyano-2,6-dimethoxyphenol (SN) and 3,4,5-trimethoxyphenol (TMP). The plates were sealed and incubated at 50° C. for 2 hours at 150 rpm in a standard incubator. Following this period, the swatches were removed from the plates and carefully placed on a filter paper in a Buchner funnel and washed with copious amounts of water, followed by drying of the residual water under high vacuum overnight. The swatches were then re-read with the chromometer in order to determine the CIE L*a*b* values of both the front and backside of the disk following bleaching. The total color difference (ΔE) is calculated from the difference between the initial and final CIE L*a*b* values according to the formula ΔE=(ΔL^2+Δa^2+Δb^2)^1/2 The total color differences (ΔE) as a function of mediator concentration are plotted in FIGS. 5 and 6.
# A denim swatch bleaching assay was performed as described in Example 16, in this instance, using a recombinant form of the laccase D protein derived from C. unicolor.
# Two duplicate 12-well plates were loaded with denim disks. The laccase D stock solution (5.5 ABTS units per mL) was dosed at either 25 or 50 uL per well. The mediators used were methyl syringate (MS), 4-cyano-2,6-dimethoxyphenol (SN) and 4-carboxamido-2,6-dimethoxyphenol (SA) and were used at either 0.5 or 1 mM concentration. The results are depicted in FIGS. 7 and 8.
# C. unicolor laccase = test: Bleaching of denim swatches with C. unicolor laccase (Example 4); design: key to ΔL Denim swatch Frontside / Δb Denim swatch Frontside / ΔL Denim swatch Backside / Δb Denim swatch Backside / Δa Denim swatch Backside / Δa Denim swatch Frontside: difference between initial and final CIE L*a*b* values; key to ΔE (total color difference) Denim swatch Backside / ΔE (total color difference) Denim swatch Frontside: ΔE = (ΔL²+Δa²+Δb²)^1/2 from CIE L*a*b* before/after bleaching; conditions: for ΔE (total color difference) Denim swatch Backside / ΔE (total color difference) Denim swatch Frontside / ΔL Denim swatch Backside / ΔL Denim swatch Frontside / Δa Denim swatch Backside / Δb Denim swatch Backside / Δb Denim swatch Frontside: laccase 20 ppm, pH 6, 50° C., 2 hours
# Method: as §5, §6
# [3] = mediator 0.5 mM, laccase D stock (5.5 U/mL) 25 uL
# [4] = mediator 0.5 mM, laccase D stock (5.5 U/mL) 50 uL
# [5] = mediator 1 mM, laccase D stock (5.5 U/mL) 25 uL
# [6] = mediator 1 mM, laccase D stock (5.5 U/mL) 50 uL
structure (smiles),measurement,setting,value
"COc1cc(C(N)=O)cc(OC)c1O [SA, 4-carboxamido-2,6-dimethoxyphenol]",ΔA600 Myceliophtora,"[1]; pH 5, mediator 250 uM",0.254
same,ΔA600 Myceliophtora,"[1]; pH 7, mediator 250 uM",0.220
same,ΔA600 Cerrena,"Cerrena sp. laccase; pH 5, mediator 250 uM",0.142
same,ΔA600 Cerrena,"Cerrena sp. laccase; pH 7, mediator 250 uM",0.128
same,ΔE (total color difference) Denim swatch Backside,[2]; [3],6.69 and 6.39
same,ΔE (total color difference) Denim swatch Frontside,[2]; [3],5.07 and 5.70
same,ΔL Denim swatch Backside,[2]; [3],4.94 and 4.93
same,ΔL Denim swatch Frontside,[2]; [3],4.73 and 5.28
same,Δb Denim swatch Backside,[2]; [3],4.51 and 4.05
same,Δb Denim swatch Frontside,[2]; [3],1.16 and 1.47
same,ΔE (total color difference) Denim swatch Backside,[2]; [4],6.15 and 6.71
same,ΔE (total color difference) Denim swatch Frontside,[2]; [4],3.96 and 4.75
same,ΔL Denim swatch Backside,[2]; [4],4.64 and 5.25
same,ΔL Denim swatch Frontside,[2]; [4],3.66 and 4.46
same,Δb Denim swatch Backside,[2]; [4],4.04 and 4.17
same,Δb Denim swatch Frontside,[2]; [4],0.87 and 0.88
same,ΔE (total color difference) Denim swatch Backside,[2]; [5],8.92 and 8.37
same,ΔE (total color difference) Denim swatch Frontside,[2]; [5],7.55 and 7.70
same,ΔL Denim swatch Backside,[2]; [5],7.02 and 6.53
same,ΔL Denim swatch Frontside,[2]; [5],7.07 and 7.19
same,Δb Denim swatch Backside,[2]; [5],5.51 and 5.22
same,Δb Denim swatch Frontside,[2]; [5],1.76 and 1.68
same,ΔE (total color difference) Denim swatch Backside,[2]; [6],8.72 and 9.16
same,ΔE (total color difference) Denim swatch Frontside,[2]; [6],6.72 and 7.93
same,ΔL Denim swatch Backside,[2]; [6],6.52 and 6.82
same,ΔL Denim swatch Frontside,[2]; [6],6.23 and 7.37
same,Δa Denim swatch Backside,[2]; [6],0.15 and 0.10
same,Δb Denim swatch Backside,[2]; [6],5.79 and 6.12
same,Δb Denim swatch Frontside,[2]; [6],1.73 and 2.11
"COc1cc(C#N)cc(OC)c1O [SN, 4-cyano-2,6-dimethoxyphenol]",effectiveness as mediator for denim swatch bleaching,"C. unicolor laccase; C. unicolor laccase 20 ppm, 200-2000 uM mediator",most effective mediator
same,ΔE (total color difference) Denim swatch Backside,C. unicolor laccase; mediator 200 uM,10.39 and 10.37
same,ΔE (total color difference) Denim swatch Frontside,C. unicolor laccase; mediator 200 uM,7.24 and 8.51
same,ΔL Denim swatch Backside,C. unicolor laccase; mediator 200 uM,8.38 and 8.67
same,ΔL Denim swatch Frontside,C. unicolor laccase; mediator 200 uM,6.63 and 7.98
same,Δa Denim swatch Backside,C. unicolor laccase; mediator 200 uM,0.54 and 0.38
same,Δb Denim swatch Backside,C. unicolor laccase; mediator 200 uM,6.12 and 5.67
same,Δb Denim swatch Frontside,C. unicolor laccase; mediator 200 uM,2.57 and 2.67
same,ΔE (total color difference) Denim swatch Backside,C. unicolor laccase; mediator 500 uM,13.43 and 14.11
same,ΔE (total color difference) Denim swatch Frontside,C. unicolor laccase; mediator 500 uM,15.59 and 13.17
same,ΔL Denim swatch Backside,C. unicolor laccase; mediator 500 uM,10.71 and 11.6
same,ΔL Denim swatch Frontside,C. unicolor laccase; mediator 500 uM,14.46 and 12.06
same,Δa Denim swatch Backside,C. unicolor laccase; mediator 500 uM,0.35 and 0.38
same,Δb Denim swatch Backside,C. unicolor laccase; mediator 500 uM,8.1 and 8.03
same,Δb Denim swatch Frontside,C. unicolor laccase; mediator 500 uM,5.51 and 4.92
same,ΔE (total color difference) Denim swatch Backside,C. unicolor laccase; mediator 1000 uM,13.98 and 15.19
same,ΔE (total color difference) Denim swatch Frontside,C. unicolor laccase; mediator 1000 uM,14.75 and 14.92
same,ΔL Denim swatch Backside,C. unicolor laccase; mediator 1000 uM,11.45 and 12.1
same,ΔL Denim swatch Frontside,C. unicolor laccase; mediator 1000 uM,13.54 and 13.84
same,Δa Denim swatch Backside,C. unicolor laccase; mediator 1000 uM,0.07 and 0.14
same,Δb Denim swatch Backside,C. unicolor laccase; mediator 1000 uM,8.02 and 9.19
same,Δb Denim swatch Frontside,C. unicolor laccase; mediator 1000 uM,5.47 and 4.98
same,ΔE (total color difference) Denim swatch Backside,C. unicolor laccase; mediator 2000 uM,15.31 and 16.59
same,ΔE (total color difference) Denim swatch Frontside,C. unicolor laccase; mediator 2000 uM,16.03 and 14.48
same,ΔL Denim swatch Backside,C. unicolor laccase; mediator 2000 uM,12.34 and 13.58
same,ΔL Denim swatch Frontside,C. unicolor laccase; mediator 2000 uM,14.79 and 13.23
same,Δb Denim swatch Backside,C. unicolor laccase; mediator 2000 uM,9.06 and 9.52
same,Δb Denim swatch Frontside,C. unicolor laccase; mediator 2000 uM,5.8 and 5.58
same,ΔE (total color difference) Denim swatch Backside,[2]; [3],11.62 and 11.54
same,ΔE (total color difference) Denim swatch Frontside,[2]; [3],9.98 and 10.48
same,ΔL Denim swatch Backside,[2]; [3],9.69 and 9.31
same,ΔL Denim swatch Frontside,[2]; [3],9.23 and 9.73
same,Δb Denim swatch Backside,[2]; [3],6.41 and 6.81
same,Δb Denim swatch Frontside,[2]; [3],3.12 and 3.39
same,ΔE (total color difference) Denim swatch Backside,[2]; [4],10.67 and 10.48
same,ΔE (total color difference) Denim swatch Frontside,[2]; [4],8.70 and 9.31
same,ΔL Denim swatch Backside,[2]; [4],8.87 and 8.45
same,ΔL Denim swatch Frontside,[2]; [4],8.20 and 8.67
same,Δa Denim swatch Backside,[2]; [4],0.26 and 0.33
same,Δb Denim swatch Backside,[2]; [4],5.93 and 6.19
same,Δb Denim swatch Frontside,[2]; [4],2.34 and 2.90
same,ΔE (total color difference) Denim swatch Backside,[2]; [5],13.85 and 13.07
same,ΔE (total color difference) Denim swatch Frontside,[2]; [5],13.24 and 13.88
same,ΔL Denim swatch Backside,[2]; [5],11.36 and 10.64
same,ΔL Denim swatch Frontside,[2]; [5],12.31 and 12.85
same,Δb Denim swatch Backside,[2]; [5],7.93 and 7.59
same,Δb Denim swatch Frontside,[2]; [5],4.36 and 4.85
same,ΔE (total color difference) Denim swatch Backside,[2]; [6],14.05 and 14.15
same,ΔE (total color difference) Denim swatch Frontside,[2]; [6],14.18 and 14.15
same,ΔL Denim swatch Backside,[2]; [6],11.25 and 10.98
same,ΔL Denim swatch Frontside,[2]; [6],12.98 and 12.85
same,Δa Denim swatch Backside,[2]; [6],0.29 and 0.48
same,Δb Denim swatch Backside,[2]; [6],8.41 and 8.91
same,Δb Denim swatch Frontside,[2]; [6],5.33 and 5.50
same,effectiveness as mediator for swatch bleaching,"[2]; recombinant laccase D, mediator 0.5 or 1 mM",most effective mediator
